# Results taken from the supplement of paper PMC6580486.
# Experiments:
# PCB490-3 = test system: PCB490-3 (human epithelioid sarcoma primary culture)
# Procedure: (§1)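 Roche open-access kinase inhibitor screen (223 compounds) on human epithelioid sarcoma primary cultures from three spatially distinct regions of tumor PCB490. 384-well plates, 72 h, CellTiter-Glo viability; IC50 by Hill curve fit. 100000 nM = no IC50 reached. Compound ids carry a plate-well prefix, which is stripped.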
# PCB490-4 = test system: PCB490-4 (human epithelioid sarcoma primary culture)
# Procedure: as §1
# PCB490-5 = test system: PCB490-5 (human epithelioid sarcoma primary culture)
# Procedure: as §1
Structure (SMILES),IC50 cell viability (PCB490-3) [µM],IC50 cell viability (PCB490-4) [µM],IC50 cell viability (PCB490-5) [µM]
COc1cccc(C2=C(c3cn(C)c4ccccc34)C(=O)NC2=O)c1,> 100,> 100,> 100
CCNC(=O)[C@@H]1CCCN2C(=O)CC[C@H](NC(=O)[C@H](Cc3ccc(OP(=O)(O)O)cc3)NC(C)=O)C(=O)N12,> 100,> 100,> 100
O=C1NC(=N[C@@H](CO)Cc2ccccc2)S/C1=C\c1ccc2ncccc2c1,> 100,> 100,> 100
O=C1NC(=NCc2cccs2)O/C1=C\c1ccc2ncccc2c1,> 100,> 100,> 100
Cc1nc2sc3c(N)ncnc3c2c(C)c1C,> 100,> 100,> 100
O=C1Nc2ccc(F)cc2/C1=C/c1ccc[nH]1,> 100,> 100,> 100
Nc1c(C(=O)c2cccc(CCCN3CCOCC3)c2)cnn1-c1ccc(F)cc1,> 100,> 100,> 100
CCc1c(C)nc2sc3c(N)ncnc3c2c1C,> 100,> 100,> 100
CCn1c(=O)c(Oc2ccc(F)cc2F)cc2cnc(NC3CCOCC3)nc21,> 100,> 100,> 100
CN1CCN(CC#Cc2cccc(C(=O)c3cnn(-c4ccc(F)cc4)c3N)c2)CC1,> 100,> 100,> 100
Cn1cc(C2=C(c3cccc(OC[C@H](O)CO)c3)C(=O)NC2=O)c2ccccc21,> 100,> 100,> 100
O=C1C(c2c[nH]c3ccccc23)=C(c2c[nH]c3ccccc23)C(=O)N1O,> 100,> 100,> 100
Cn1c(=O)c(Oc2ccc(F)cc2F)cc2cnc(NC3CCS(=O)(=O)CC3)nc21,> 100,> 100,> 100
O=C1NC(O)C(c2c[nH]c3ccccc23)=C1c1c[nH]c2ccccc12 (stereo not given),> 100,> 100,> 100
CC(C)(O)CCc1cccc(C(=O)c2cnn(-c3ccc(F)cc3)c2N)c1,> 100,> 100,> 100
Cn1cc(C2=C(c3ccsc3)C(=O)NC2=O)c2ccccc21,> 100,> 100,> 100
CCOc1ccccc1CCN=C1NC(=O)/C(=C/c2ccc3ncccc3c2)S1,> 100,> 100,> 100
COc1cc(F)c(F)cc1C(=O)c1cnc(NC2CCN(S(C)(=O)=O)CC2)nc1N,> 100,> 100,> 100
Cn1cc(C2=C(c3cn(C)c4cc(N)ccc34)C(=O)NC2=O)c2ccccc21,> 100,> 100,> 100
Cn1cc(C2=C(c3cccc(NCC(O)CO)c3)C(=O)NC2=O)c2cc(Cl)ccc21 (stereo not given),> 100,2,2.34

Structure (SMILES),IC50 cell viability (PCB490-3) [µM],IC50 cell viability (PCB490-4) [µM],IC50 cell viability (PCB490-5) [µM]
CC(=O)Nc1ccc2c(C3=C(c4cn(C)c5ccccc45)C(=O)NC3=O)cn(C)c2c1,> 100,1.94,> 100
O=C1NC(=NCc2cccs2)SC1Cc1ccc2ncccc2c1 (stereo not given),> 100,> 100,> 100
Cn1cc(C2=C(c3ccc4ccccc4c3)C(=O)NC2=O)c2ccccc21,> 100,> 100,> 100
C[C@@H](Cn1ncnn1)Nc1ncc2cc(Oc3ccc(F)cc3F)c(=O)n(C)c2n1,> 100,> 100,> 100
Cn1cc(C2=C(c3cn(C)c4cc(Cl)ccc34)C(=O)NC2=O)c2ccccc21,> 100,> 100,> 100
CS(=O)(=O)N1CCC(Nc2ncc(C(=O)c3c(F)cccc3F)c(N)n2)CC1,> 100,> 100,> 100
CCCCCNC(=O)[C@@H]1CCCN2C(=O)CC[C@H](NC(=O)[C@H](Cc3ccc(OP(=O)(O)O)cc3)NC(C)=O)C(=O)N12,> 100,> 100,> 100
COc1cc[nH]c1/C=C1\C(=O)Nc2ccc(F)c(I)c21,> 100,> 100,> 100
Nc1c(C(=O)c2cccc(-c3cccnc3)c2)cnn1-c1ccc(F)cc1F,> 100,> 100,> 100
CSc1c(C2=C(c3cn(C)c4ccccc34)C(=O)NC2=O)c2ccccc2n1C,> 100,> 100,> 100
COc1ccc(N2Cc3cnc(Nc4ccccc4)nc3N([C@@H]3CC[C@@H](O)C3)C2=O)cc1,2.59,1.79,2.16
C[C@@H](c1ccccc1)[C@@H](C(=O)Nc1ccc(I)cc1F)N1C(=O)N[C@H](c2ccc(OC[C@H](O)CO)cc2)C1=O,> 100,> 100,> 100
Cn1cc(C2=C(Oc3ccccc3)C(=O)NC2=O)c2ccccc21,> 100,> 100,> 100
COc1cc[nH]c1/C=C1\C(=O)Nc2ccc(F)c(C#CC3(O)CCNCC3)c21,> 100,1,0.67
Cn1cc(C2=C(Nc3ccccc3)C(=O)NC2=O)c2ccccc21,> 100,> 100,> 100
N=C1N=C(N)/C(=C/c2ccc3ncccc3c2)S1,> 100,> 100,> 100
CON=C1NC(=O)/C(=C/c2ccc3ncccc3c2)S1,6.8,> 100,> 100
O=[N+]([O-])c1ccc2c(c1)C(c1ccccc1Cl)=Nc1cn[nH]c1N2,> 100,> 100,> 100
Cn1cc(C2=C(c3cn(C)c4cc(C(=O)O)ccc34)C(=O)NC2=O)c2ccccc21,> 100,> 100,> 100
O=C1NC(=N[C@H](CO)Cc2ccccc2)S/C1=C\c1ccc2ncccc2c1,> 100,> 100,> 100

Structure (SMILES),IC50 cell viability (PCB490-3) [µM],IC50 cell viability (PCB490-4) [µM],IC50 cell viability (PCB490-5) [µM]
Cn1cc(C2=C(c3cn(CCCO)c4ccccc34)C(=O)NC2=O)c2ccccc21,> 100,> 100,> 100
COc1ccc2c(C3=C(c4cn(C)c5ccccc45)C(=O)NC3=O)cn(C)c2c1,> 100,> 100,> 100
Cn1c(=O)c(Oc2ccc(F)cc2F)cc2cnc(N[C@H]3CCOC3)nc21,> 100,> 100,> 100
Cn1cc(C2=C(c3cn(C)c4c(N)cccc34)C(=O)NC2=O)c2ccccc21,> 100,> 100,> 100
C[C@@H](CS(C)(=O)=O)Nc1ncc2cc(Oc3ccc(F)cc3F)c(=O)n(C)c2n1,> 100,> 100,> 100
O=C1NC(=NCCc2ccccc2Cl)S/C1=C\c1ccc2ncccc2c1,> 100,> 100,> 100
Cn1cc(C2=C(c3ccc(OCC(O)CO)cc3)C(=O)NC2=O)c2ccccc21 (stereo not given),> 100,> 100,> 100
O=C1NC(=NCCc2cccs2)S/C1=C\c1ccc2ncccc2c1,> 100,> 100,> 100
Nc1c(C(=O)c2cccc(OCCN3CCOCC3)c2)cnn1-c1ccc(F)cc1,> 100,> 100,> 100
Nc1c(C(=O)c2cccc(C(O)(CO)CO)c2)cnn1-c1ccc(F)cc1,> 100,> 100,> 100
Cc1[nH]nc2c1N=C(c1ccccc1Cl)c1cc([N+](=O)[O-])ccc1N2,> 100,> 100,> 100
Cn1cc(C2=C(c3cn(C)c4c([N+](=O)[O-])cccc34)C(=O)NC2=O)c2ccccc21,> 100,> 100,> 100
Nc1c(C(=O)c2cccc(C#CCN3CCCCC3)c2)cnn1-c1ccc(F)cc1,> 100,> 100,> 100
Cn1cc(C2=C(c3cccnc3)C(=O)NC2=O)c2ccccc21,> 100,> 100,> 100
COc1ccc(C2=C(c3cn(C)c4ccccc34)C(=O)NC2=O)cc1OC,> 100,> 100,> 100
CCCn1cc(C2=C(c3cn(C)c4ccccc34)C(=O)NC2=O)c2ccccc21,> 100,> 100,> 100
O=C1NC(=NCc2ccccn2)S/C1=C\c1ccc2ncccc2c1,> 100,> 100,> 100
Cn1cc(C2=C(c3cn(CCN)c4ccccc34)C(=O)NC2=O)c2ccccc21,> 100,> 100,> 100
O=c1c(Oc2ccc(F)cc2F)cc2cnc(NC3CCOCC3)nc2n1CCCO,> 100,> 100,> 100
CNCCCn1cc(C2=C(c3cn(C)c4ccccc34)C(=O)NC2=O)c2ccccc21,> 100,> 100,> 100
